Literature values, collected in patent US11873519B2, “Composition for preventing age-related metabolic and tissue degenerative changes” (priority 2017, dated 2024).

System: Ewing's sarcoma PDOX

For “L-methionine α-deamino-γ-mercaptomethane lyase [rMETase]”, the “Serum and tumor MET levels versus controls” value is listed as “lower” and the “Tumor growth compared to untreated control mice” value is listed as “effectively reduced tumor growth”.
